Columns and labels:
CXCR7 receptor [1] = biological target: T1, CXCR7 receptor (Homo sapiens (Human), UniProt P25106); assay: Serum Binding Analysis: displacement of 125I-labeled SDF-1 from CXCR7 in 100% human serum; settings: 125I SDF-1 displacement in 100% human serum, MCF-7 and/or MDA-MB-435S CXCR7 transfected cells, 3 hrs at 4° C.; read-out: Avg Ser IC50
Protocol: (§1) The compounds were combined with cells expressing the CXCR7 receptor (e.g., MCF cells or cells transfected to express CXCR7) in the presence of the 125 I-labeled SDF-1 chemokine as detailed in Determination of IC50 values. Reagents and Cells (see below). The ability of the compounds to displace the labeled chemokine from the CXCR7 receptor sites at multiple concentrations was then determined with the screening process.
In Table 1, Avg Bind IC50 refers to the Buffer Binding Analysis described below, while Avg Ser IC50 refers to the Serum Binding Analysis described below. All compounds were prepared as described in the Examples above, or by related methods substituting readily available starting materials.
(§2) ^125I-labeled SDF-1 was purchased from Perkin-Elmer Life Sciences, Inc. (Boston, Mass.). The MCF-7 (adenocarcinoma; mammary gland) cell line was obtained from the American Type Culture Collection (ATCC, Manassas, Va.) or and was cultured in DMEM (Mediatech, Herndon, Va.) supplemented with 10% fetal bovine serum (FBS) (HyClone Logan, Utah) and bovine insulin (0.01 mg/mL) (Sigma. St. Louis, Mo.) at 37° C. in a humidified incubator at a 5% CO2/air mixture. CXCR7 transfected MDA-MB-435S were produced as described below. MDA-MB-435S human breast cancer line, was purchased from ATCC, and cultured in DMEM/10% FBS medium. The complete coding sequence of the gene encoding CXCR7 (a.k.a. CCXCKR2, hRDC1), was isolated from MCF-7 cells using μMACs mRNA isolation kit (Miltenyi Biotec, Auburn, Calif.). DNA contamination was removed by DNase digestion via RNeasy columns (Qiagen, Inc., Valencia, Calif.) and cDNA was generated using GeneAmp RNA PCR Core Kit (Applied Biosystems, Foster City. Calif.). PCR of cDNA samples was performed using Taq PCR Master Mix kit (Qiagen. Inc.) and hRDC1 primers harboring 5′ and 3′ Not I sites (hRDC1F 5′ […]-3, hRDC1R 5′-[…]-3′) Not I digested PCR product was ligated into Not I digested pcDNA3.1(+)(Invitrogen, Carlsbad, Calif.) and screened for orientation and sequence confirmed. Plasmid DNA was then isolated from overnight bacterial cultures by Maxiprep (Qiagen, Inc.). Plasmid DNA (10 μg) was added to MDA-MB-435s cells and cells were electroporated (0.22 kV, 960 uF) via Gene Pulser (Biorad laboratories, Hercules, Calif.). 48 hr post-electroporation, cells were transferred to selection medium (600 ug/ml G418).
In order to more properly assess the binding efficacy of the compounds, radioligand binding assays were carried out in the presence of 100% human serum to more accurately reflect the in vivo environment. […] Target compounds were tested to determine their ability to bind with CXCR7 sites on MCF-7 and/or MDA-MB-435S CXCR7 transfected cells. Efficiency-maxim/zed radioligand binding using filtration protocols as described in Dairaghi D J, et al., HHV8-encoded vMIP-I selectively engages chemokine receptor CCR5. Agonist and antagonist profiles of viral chemokines., J. Biol. Chem. 1999 Jul. 30; 274(31): 21569-74 and Gosling J, et al., Cutting edge: identification of a novel chemokine receptor that binds dendritic cell- and T cell-active chemokines including ELC, SLC, and TECK, J. Immunol. 2000 Mar. 15; 164(6):2851-6 was used.
In these assays, MCF-7 and/or MDA-MB-435S cells were interrogated with the target compounds and the ability of these compounds to displace 125 I radiolabeled SDF-1 was assessed using the protocol described in Dairaghi and Gosling. The target compounds were added to the plate to the indicated concentration followed by addition of cells and radiolabeled chemokine (125I SDF-1), both in the following medium (human AB serum with 10 mM HEPES added to stabilize at pH 7.4). All assays were then incubated for 3 hrs at 4° C. with gentle agitation.

C6 cells = assay: Rat C6 model of glioblastoma; format: in vivo; settings: C6 cells implanted into brains of Sprague-Dawley rats, tumors irradiated with 5-20 Gy after 7 days, then compound vs vehicle control
Protocol: Many tumor models in animals are known in the art, and may be employed to evaluate a compound of instance. For instance, in a rat C6 model of glioblastoma, 1×10^6 C6 cells were implanted by stereotactic injection into the into the brains of Sprague-Dawley rats. After 7 days tumors were irradiated with between 5-20 Gy of radiation. Following irradiation rats were treated (eg via subcutaneous, intraperitoneal, oral, parenteral or other route) with compound or vehicle control and tumors are allowed to progress. Animals were followed until death or loss of >20% weight, or removed for tumor induced neurodeficits eg seizures and immobility in according with appropriate regulations and standards.

CXCR7 receptor [2] = biological target: T1, CXCR7 receptor; assay: Buffer Binding Analysis: displacement of 125I-labeled SDF-1 from CXCR7; settings: 125I SDF-1 displacement, buffer binding medium, MCF-7 and/or MDA-MB-435S CXCR7 transfected cells, 3 hr at 4° C.; read-out: Avg Bind IC50
Protocol: as §1
Compounds that were deemed effective modulators were able to displace at least 50% of the SDF-1 from the CXCR7 receptor at concentrations at or below 15 micromolar (μM) but >2500 nM (+); and more preferably at concentrations from >500 nM to ≤2500 nM (++). At present, especially preferred compounds can displace at least 50% of the SDF-1 from the CXCR7 receptor at concentrations at or below 500 nM (+++). Exemplary compounds that met these criteria are reproduced in Table 1 and the Examples above. In Table 1, Avg Bind IC50 refers to the Buffer Binding Analysis described below, while Avg Ser IC50 refers to the Serum Binding Analysis described below. All compounds were prepared as described in the Examples above, or by related methods substituting readily available starting materials.
as §2
Target compounds can be tested to determine their ability to bind with CXCR7 sites on MCF-7 and/or MDA-MB-435S CXCR7 transfected cells. Efficiency-maxim/zed radioligand binding using filtration protocols as described in Dairaghi D J, et al., HHV8-encoded vMIP-I selectively engages chemokine receptor CCR5. Agonist and antagonist profiles of viral chemokines., J. Biol. Chem. 1999 Jul. 30; 274(31): 21569-74 and Gosling J. et al., Cutting edge: identification of a novel chemokine receptor that binds dendritic cell-and T cell-active chemokines including ELC. SLC, and TECK., J. Immunol. 2000 Mar. 15; 164(6):2851-6 was used.
In these assays, MCF-7 and/or MDA-MB-435S cells are interrogated with the target compounds and the ability of these compounds to displace ^125I radiolabeled SDF-1 assessed using the protocol described in Dairaghi and Gosling. […]

T1 sequence (P25106 whole entry): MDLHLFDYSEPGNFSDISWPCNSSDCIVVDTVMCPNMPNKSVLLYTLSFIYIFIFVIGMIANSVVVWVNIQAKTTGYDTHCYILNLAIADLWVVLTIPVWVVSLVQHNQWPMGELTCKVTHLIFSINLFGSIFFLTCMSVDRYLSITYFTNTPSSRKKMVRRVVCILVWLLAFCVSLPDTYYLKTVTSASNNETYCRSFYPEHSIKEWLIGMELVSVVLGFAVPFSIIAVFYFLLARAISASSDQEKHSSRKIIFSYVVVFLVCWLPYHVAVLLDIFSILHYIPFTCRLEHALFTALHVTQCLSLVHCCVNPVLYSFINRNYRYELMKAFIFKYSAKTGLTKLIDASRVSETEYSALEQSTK

Row | IC50 (CXCR7 receptor [1]) | IC50 (CXCR7 receptor [2]) | Compound | antitumor activity (delay in tumor growth, Kaplan Meier analysis of survival) (C6 cells)
1 | 0.5 to 2.5 µM | ≤ 0.5 µM | Cc1ccccc1-n1ccc(C(=O)N[C@H]2CCN(c3nccn4ccc(C)c34)C2)n1 [Compound 1.109] | –
2 | 0.5 to 2.5 µM | ≤ 0.5 µM | O=C(N[C@H]1CCN(c2nccn3cnnc23)C1)c1ccn(-c2ccc(Cl)cc2)n1 [Compound 1.112] | –
3 | ≤ 0.5 µM | ≤ 0.5 µM | O=C(N[C@H]1CCN(c2nccn3cccc23)C1)c1ccn(-c2cccc(F)c2)n1 [Compound 1.113] | –
4 | ≤ 0.5 µM | ≤ 0.5 µM | O=C(N[C@H]1CCN(c2nccn3cccc23)C1)c1ccn(-c2ccc(Cl)c(F)c2)n1 [Compound 1.114] | –
5 | ≤ 0.5 µM | ≤ 0.5 µM | N#CCc1ccccc1-n1ccc(C(=O)N[C@H]2CCN(c3nccn4cccc34)C2)n1 [Compound 1.115] | –
6 | 0.5 to 2.5 µM | ≤ 0.5 µM | O=C(N[C@H]1CCN(c2nccn3cccc23)C1)c1ncn(-c2ccc(Cl)cc2)n1 [Compound 1.119] | –
7 | ≤ 0.5 µM | ≤ 0.5 µM | Cc1ccccc1-n1ccc(C(=O)N[C@H]2CCN(c3nccn4cccc34)C2)n1 [Compound 1.123] | –
8 | ≤ 0.5 µM | ≤ 0.5 µM | O=C(N[C@H]1CCN(c2nccn3cccc23)C1)c1csc(-c2ccccc2)n1 [Compound 1.124] | –
9 | ≤ 0.5 µM | ≤ 0.5 µM | O=C(N[C@H]1CCN(c2nccn3cccc23)C1)c1ncn(-c2ccccc2)n1 [Compound 1.126] | –
10 | ≤ 0.5 µM | ≤ 0.5 µM | O=C(N[C@H]1CCN(c2nccn3cccc23)C1)c1ccn(-c2ccc(Cl)cc2)n1 [Compound 1.129] | –

Further lines, the compound ahead of its results:

Row | Compound | IC50 (CXCR7 receptor [1]) | IC50 (CXCR7 receptor [2]) | antitumor activity (delay in tumor growth, Kaplan Meier analysis of survival) (C6 cells)
11 | O=C(N[C@H]1CCN(c2nccn3ccnc23)C1)c1ncn(-c2ccc(F)cc2)n1 [Compound 1.090] | ≤ 0.5 µM | ≤ 0.5 µM | profound antitumor activity
12 | Cc1ccn2ccnc(N3CC[C@H](NC(=O)c4coc(-c5ccccc5)n4)C3)c12 [Compound 1.107] | 0.5 to 2.5 µM | ≤ 0.5 µM | –
13 | Cc1ccn2ccnc(N3CC[C@H](NC(=O)c4csc(-c5ccc(F)cc5)n4)C3)c12 [Compound 1.108] | 0.5 to 2.5 µM | ≤ 0.5 µM | –
14 | Cc1ccn2ccnc(N3CC[C@H](NC(=O)c4ncc(-c5ccccc5)cn4)C3)c12 [Compound 1.110] | 0.5 to 2.5 µM | ≤ 0.5 µM | –
15 | Cc1ccn2ccnc(N3CC[C@H](NC(=O)c4noc(-c5ccccc5)n4)C3)c12 [Compound 1.111] | 0.5 to 2.5 µM | ≤ 0.5 µM | –
16 | Cc1ccn2ccnc(N3CC[C@H](NC(=O)c4coc(-c5ccc(F)cc5)n4)C3)c12 [Compound 1.116] | 0.5 to 2.5 µM | ≤ 0.5 µM | –
17 | Cc1ccn2ccnc(N3CC[C@H](NC(=O)c4ncn(-c5ccccc5)n4)C3)c12 [Compound 1.117] | ≤ 0.5 µM | ≤ 0.5 µM | –
18 | Cc1ccccc1-n1cnc(C(=O)N[C@H]2CCN(c3nccn4cccc34)C2)n1 [Compound 1.118] | ≤ 0.5 µM | ≤ 0.5 µM | –
19 | O=C(N[C@H]1CCN(c2nccn3cccc23)C1)c1noc(-c2ccccc2)n1 [Compound 1.120] | ≤ 0.5 µM | ≤ 0.5 µM | –
20 | O=C(N[C@H]1CCN(c2nccn3cnnc23)C1)c1coc(-c2ccc(F)cc2)n1 [Compound 1.122] | ≤ 0.5 µM | ≤ 0.5 µM | –
21 | O=C(N[C@H]1CCN(c2nccn3cccc23)C1)c1coc(-c2ccccc2)n1 [Compound 1.125] | ≤ 0.5 µM | ≤ 0.5 µM | –
22 | O=C(N[C@H]1CCN(c2nccn3cnnc23)C1)c1ncn(-c2ccccc2)n1 [Compound 1.127] | ≤ 0.5 µM | ≤ 0.5 µM | –

Source: patent US10287292B2, “CXCR7 antagonists” (CHEMOCENTRYX, INC., priority 2012, dated 2019)
